Where a name gives a salt, the structure may show the parent alone.
Key:
Settings in all cases: exposure time: 15 min to 3 h acute
Dugesia japonica [1] = assay: corkscrew incidence (% planarians (vehicle-normalised)); higher = higher incidence or increase relative to vehicle control
Method: (§1)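 Adult asexual Dugesia japonica planarians (1 per well, 48-well plate, n=24 over technical triplicates) were exposed acutely (15 min to 3 h) to each compound (0.5% DMSO or water vehicle) and screened on a robotic platform for crawl-out, stickiness, body shape, phototaxis, noxious-heat scrunching and locomotion endpoints. Binary endpoints are incidence rate x100 normalised to in-plate vehicle controls. Continuous endpoints are the median response normalised to the plate vehicle median, as % change or difference. Negative incidences after vehicle subtraction were set to 0.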

Dugesia japonica [2] = assay: C-shape incidence (% planarians (vehicle-normalised)); higher = higher incidence or increase relative to vehicle control
Method: as §1

Dugesia japonica [3] = assay: loss of heat-induced scrunching incidence (% planarians (vehicle-normalised)); higher = higher incidence or increase relative to vehicle control
Method: as §1

Dugesia japonica [4] = assay: hyperkinesis incidence (% planarians (vehicle-normalised)); higher = higher incidence or increase relative to vehicle control
Method: as §1

Dugesia japonica [5] = assay: anxiety (time in outer well region) vs vehicle (% change vs vehicle); higher = higher incidence or increase relative to vehicle control
Method: as §1

Dugesia japonica [6] = assay: stickiness incidence (% planarians (vehicle-normalised)); higher = higher incidence or increase relative to vehicle control
Method: as §1

Dugesia japonica [7] = assay: speed first 30 s blue light vs vehicle (% change vs vehicle); higher = higher incidence or increase relative to vehicle control
Method: as §1

Dugesia japonica [8] = assay: speed second 30 s blue light vs vehicle (% change vs vehicle); higher = higher incidence or increase relative to vehicle control
Method: as §1

Dugesia japonica [9] = assay: speed in dark vs vehicle (% change vs vehicle); higher = higher incidence or increase relative to vehicle control
Method: as §1

Dugesia japonica [10] = assay: loss of phototaxis incidence (% planarians (vehicle-normalised)); higher = higher incidence or increase relative to vehicle control
Method: as §1

Dugesia japonica [11] = assay: contracted body shape incidence (% planarians (vehicle-normalised)); higher = higher incidence or increase relative to vehicle control
Method: as §1

Dugesia japonica [12] = assay: resting fraction in blue light vs vehicle (difference in fraction x100 vs vehicle); higher = higher incidence or increase relative to vehicle control
Method: as §1

Dugesia japonica [13] = assay: pharynx extrusion incidence (% planarians (vehicle-normalised)); higher = higher incidence or increase relative to vehicle control
Method: as §1

Dugesia japonica [14] = assay: total locomotor bursts minus vehicle (bursts difference vs vehicle); higher = higher incidence or increase relative to vehicle control
Method: as §1

Dugesia japonica [15] = assay: noxious heat displacement strength vs vehicle (% change vs vehicle); higher = higher incidence or increase relative to vehicle control
Method: as §1

Dugesia japonica [16] = assay: resting fraction in dark vs vehicle (difference in fraction x100 vs vehicle); higher = higher incidence or increase relative to vehicle control
Method: as §1

Dugesia japonica [17] = assay: any abnormal body shape incidence (% planarians (vehicle-normalised)); higher = higher incidence or increase relative to vehicle control
Method: as §1

Dugesia japonica [18] = assay: crawl-out incidence (% planarians); higher = higher incidence or increase relative to vehicle control
Method: as §1, with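 “x100.” for “x100 normalised to in-plate vehicle controls.”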

SMILES | corkscrew incidence (Dugesia japonica [1]) | C-shape incidence (Dugesia japonica [2]) | loss of heat-induced scrunching incidence (Dugesia japonica [3]) | hyperkinesis incidence (Dugesia japonica [4]) | anxiety (Dugesia japonica [5]) | stickiness incidence (Dugesia japonica [6]) | speed first 30 s blue light (Dugesia japonica [7]) | speed second 30 s blue light (Dugesia japonica [8]) | speed in dark (Dugesia japonica [9]) | loss of phototaxis incidence (Dugesia japonica [10]) | contracted body shape incidence (Dugesia japonica [11]) | resting fraction in blue light (Dugesia japonica [12]) | pharynx extrusion incidence (Dugesia japonica [13]) | total locomotor bursts minus vehicle (Dugesia japonica [14]) | noxious heat displacement strength (Dugesia japonica [15]) | resting fraction in dark (Dugesia japonica [16]) | any abnormal body shape incidence (Dugesia japonica [17]) | crawl-out incidence (Dugesia japonica [18])
Cc1cc2c(s1)Nc1ccccc1N=C2N1CCN(C)CC1 [olanzapine] (316 µM) | 13.6 | 27.3 | 72.7 | 45.5 | -6.74 | 22.7 | -94.9 | -89.1 | -71.2 | 13.3 | 31.8 | 77.4 | 0 | 7 | -47.4 | 73.9 | 81.8 | 37.5
CN(C)CCCN1c2ccccc2CCc2ccccc21 [imipramine] (3.16 µM) | 0 | 0 | ≤ 0 | 0 | 3.55 | ≤ 0 | -51.6 | -43.6 | -44.7 | ≤ 0 | 0 | 6.5 | 0 | 11 | -7.92 | 12.6 | 0 | 0
O=C(CCCN1CCC(O)(c2ccc(Cl)cc2)CC1)c1ccc(F)cc1 [haloperidol] (31.6 µM) | 52.6 | 0 | 5 | 21.1 | -7.34 | ≤ 0 | -68 | -62.8 | -59.3 | 15 | 10.5 | 16.3 | 0 | 15.5 | -24 | 35.2 | 63.2 | 16.7
O=C1CCc2ccc(OCCCCN3CCN(c4cccc(Cl)c4Cl)CC3)cc2N1 [aripiprazole] (31.6 µM) | 4.17 | 62.5 | 70.8 | 12.5 | -46.5 | ≤ 0 | -79.9 | -81.8 | -62.3 | 25 | 0 | 32 | 4.17 | 53 | -38.6 | 56.6 | 70.8 | 0
O=C(CCCN1CC=C(n2c(=O)[nH]c3ccccc32)CC1)c1ccc(F)cc1 [droperidol] (100 µM) | 0 | 4.35 | 73.9 | 0 | -37 | 13 | -94.2 | -96.2 | -79.8 | 60.9 | 100 | 93.1 | 0 | 30 | -26.6 | 74.8 | 100 | 4.17
CN1C(=O)CN=C(c2ccccc2)c2cc(Cl)ccc21 [diazepam] (31.6 µM) | 4.17 | 25 | 16.7 | 8.33 | -8.02 | 16.7 | -43.1 | -63 | -43.7 | 8.33 | 8.33 | 17.2 | 25 | 6.5 | -21.6 | 56.8 | 41.7 | 0
CN1CCN(CCCN2c3ccccc3Sc3ccc(Cl)cc32)CC1 [prochloroperazine] (100 µM) | 5 | 35 | 75 | 0 | -100 | ≤ 0 | -91.1 | -92.9 | -72.3 | 76.5 | 75 | 82.2 | 0 | 0.25 | -41.6 | 77 | 70 | 29.2
CN1CCN(CCCN2c3ccccc3Sc3ccc(Cl)cc32)CC1 [prochloroperazine] (3.16 µM) | 0 | 0 | 45.8 | 12.5 | 19 | 4.17 | -37.9 | -55.6 | -37.4 | 17.4 | 4.17 | -3.15 | 0 | 14.8 | -46.2 | 15.2 | 16.7 | 4.17
O=C1CC2(CCCC2)CC(=O)N1CCCCN1CCN(c2ncccn2)CC1 [buspirone] (10 µM) | 0 | 0 | 8.33 | 20.8 | -1.55 | 16.7 | -68.5 | -54.8 | -20.5 | 25 | 4.17 | 26.6 | 0 | 6.25 | -46.4 | 16.7 | 20.8 | 0
O=C1CC2(CCCC2)CC(=O)N1CCCCN1CCN(c2ncccn2)CC1 [buspirone] (100 µM) | 4.76 | 0 | 57.1 | 4.76 | -20.5 | 19.1 | -79.9 | -81.2 | -41 | 42.9 | 0 | 44.9 | 0 | 0.5 | -53.2 | 43 | 9.52 | 12.5
CC(NC(C)(C)C)C(=O)c1cccc(Cl)c1 (stereo not given) [bupropion] (1000 µM) | 33.3 | 0 | 83.3 | 45.8 | 13.4 | 37.5 | -64.2 | -9.8 | -56.9 | ≤ 0 | 0 | 19.6 | 0 | -2.5 | -39.5 | 56.1 | 50 | 0
CN[C@H]1CC[C@@H](c2ccc(Cl)c(Cl)c2)c2ccccc21 [sertraline hydrochloride] (10 µM) | 0 | 0 | 33.3 | 0 | 1.96 | 4.17 | -16.8 | 0.96 | 24.4 | ≤ 0 | 0 | 0.73 | 0 | -9.5 | 27 | -1.57 | 0 | 0
CCCCNc1c(C(=O)OCC)c(C)nc2c1cnn2CC [tracazolate hydrochloride] (10 µM) | 0 | 0 | 16.7 | 0 | -12.6 | ≤ 0 | -24.7 | -17.8 | -27.1 | ≤ 0 | 0 | 0 | 0 | 4.5 | -3.78 | 1.52 | 0 | 0
CCCCNc1c(C(=O)OCC)c(C)nc2c1cnn2CC [tracazolate hydrochloride] (31.6 µM) | 8.33 | 79.2 | 41.7 | 12.5 | -51.8 | ≤ 0 | -90.9 | -87.7 | -78.9 | 33.3 | 4.17 | 51 | 0 | 55.8 | -31.1 | 39.1 | 83.3 | 0
CN[C@H]1CC[C@@H](c2ccc(Cl)c(Cl)c2)c2ccccc21 [sertraline hydrochloride] (100 µM) | 0 | 0 | 21.7 | 91.3 | 17.1 | ≤ 0 | -33.7 | -33.9 | 7.78 | 4.35 | 0 | 3.91 | 0 | -5.25 | -27.1 | 4.98 | 91.3 | 4.17

From the supplement of paper PMC11781733
